Reference: patent publication US20240174690A1, “ANNULATED 2-AMINO-3-CYANO THIOPHENES AND DERIVATIVES FOR THE TREATMENT OF CANCER” (BOEHRINGER INGELHEIM INTERNATIONAL GMBH, priority 2021, published 2024)

Tests used:
KRAS (G12C)::SOS1 = KRAS (G12C)::SOS1 (Homo sapiens (Human), UniProt P01116, C118S/C51S/C80L/G12C); assay: KRAS::SOS1 AlphaScreen binding assay, KRAS G12C
Summary of the method: (§1)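 AlphaScreen measurement of compound disruption of biotinylated, GDP-loaded KRAS 1-169 (10 nM; G12C 7.5 nM) binding to GST-SOS1 564-1049 (5 nM with G12D/G12C, 10 nM otherwise), with 10 μM GDP in PBS/0.1% BSA/0.05% Tween 20. Timing was 30 min compound preincubation, then 60 min with beads at room temperature; top concentration 100 μM, 4-parameter IC50.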

[1] = test system: KRAS G12V-dependent Ba/F3 cells; assay: Ba/F3 proliferation assay, KRAS G12V; type: cell-based; conditions: Mus musculus, BaF3, 72 h, AlamarBlue;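 also: proliferation IC50 in KRAS G12V-dependent Ba/F3 cells read by AlamarBlue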
Summary of the method: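 Proliferation of mutant-KRAS-driven Ba/F3 cells cultured without IL-3 is followed with AlamarBlue after compound addition. Curves are fitted from duplicate wells.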

KRAS (G12D)::SOS1 = KRAS (G12D)::SOS1 (Homo sapiens (Human), UniProt P01116, G12D); assay: KRAS::SOS1 AlphaScreen binding assay, KRAS G12D
Chain of KRAS (G12D)::SOS1 (P01116 other isoform, or with tags, fused parts or gaps G12D): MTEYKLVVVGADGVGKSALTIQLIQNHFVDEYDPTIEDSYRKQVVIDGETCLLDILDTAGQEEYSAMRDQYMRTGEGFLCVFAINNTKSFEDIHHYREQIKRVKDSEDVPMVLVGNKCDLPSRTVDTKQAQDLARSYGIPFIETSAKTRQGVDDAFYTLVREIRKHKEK
Summary of the method: as §1

SAS cells = assay: SAS CTG proliferation assay (120 h) (HNSCC, wt amplified); type: cell-based
Summary of the method: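 Viability measured by CellTiter-Glo luminescence, normalized to DMSO wells, after 120 h compound treatment of SAS cells. Cells grown in DMEM:F12 plus 10% FCS at 300 cells per well, dosed the day after seeding. Four-parameter fit gives IC50.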

Chain of KRAS (G12C)::SOS1 (P01116 other isoform, or with tags, fused parts or gaps G12C/C51S/C80L/C118S): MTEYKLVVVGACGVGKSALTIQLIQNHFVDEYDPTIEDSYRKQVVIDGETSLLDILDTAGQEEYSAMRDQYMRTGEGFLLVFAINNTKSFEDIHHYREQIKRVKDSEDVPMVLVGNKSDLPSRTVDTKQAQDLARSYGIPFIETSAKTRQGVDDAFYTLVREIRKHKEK

Row | SMILES | IC50 (KRAS (G12C)::SOS1) [nM] | IC50 [1] [nM] | IC50 (KRAS (G12D)::SOS1) [nM] | IC50 (SAS cells) [nM]
1 | C[C@H](Oc1cc(-c2ccn3ncnc3c2)nc(-c2onc3c2CCC[C@@]32CCCc3sc(N)c(C#N)c32)n1)[C@@H]1CCCN1C [I-33] | 2 | 14 | 6 | 81
2 | Cc1nc(-c2cc(O[C@@H](C)[C@@H]3CCCN3C)nc(-c3onc4c3CCC[C@@]43CCCc4sc(N)c(C#N)c43)n2)cs1 [I-24] | 2 | 5 | 2 | 77
3 | C[C@H](Oc1cc(N2CC3CCC(C2)N3)nc(-c2noc3c2CCC[C@@]32CCCc3sc(N)c(C#N)c32)n1)[C@@H]1CCCN1C [II-34] | 3 | 681 | 1 | 1950
4 | C[C@H](Oc1cc(-n2ccnn2)nc(-c2onc3c2CCC[C@@]32CCCc3sc(N)c(C#N)c32)n1)[C@@H]1CCCN1C [I-32] | 2 | 3 | 2 | 52
5 | C[C@H](Oc1cc(-n2ccc(C(=O)N[C@@H]3CCOC3)n2)nc(-c2onc3c2CCC[C@@]32CCCc3sc(N)c(C#N)c32)n1)[C@@H]1CCCN1C [I-56] | 2 | 4 | 2 | 25
6 | CO[C@@H]1C[C@@H]([C@H](C)Oc2cc(-c3ccn(C)n3)nc(-c3onc4c3CCC[C@@]43CCCc4sc(N)c(C#N)c43)n2)N(C)C1 [I-23] | 3 | 7 | 7 | 24
7 | C[C@H](Oc1cc(-c2ccn(CC(C)(C)O)n2)nc(-c2onc3c2CCC[C@@]32CCCc3sc(N)c(C#N)c32)n1)[C@@H]1CCCN1C [I-26] | 2 | 13 | 3 | 89
8 | C[C@H](Oc1cc(-c2ccn(C3COC3)n2)nc(-c2onc3c2CCC[C@@]32CCCc3sc(N)c(C#N)c32)n1)[C@@H]1CCCN1C [I-34] | 2 | 14 | 4 | 185
9 | CO[C@H]1CCN(C)[C@@H]1[C@H](C)Oc1cc(-n2ccc(C(=O)N[C@@H]3CCOC3)n2)nc(-c2onc3c2CCC[C@@]32CCCc3sc(N)c(C#N)c32)n1 [I-53] | 1 | 1 | 1 | 13
10 | CO[C@H]1CCN(C)[C@@H]1[C@H](C)Oc1cc(N2CCNC3(CC3)C2)nc(-c2onc3c2CCC[C@@]32CCCc3sc(N)c(C#N)c32)n1 [I-49] | 3 | 184 | 1 | 905
11 | C[C@H](Oc1cc(-c2cnsc2)nc(-c2onc3c2CCC[C@@]32CCCc3sc(N)c(C#N)c32)n1)[C@@H]1CCCN1C [I-27] | 2 | 7 | 3 | 109
12 | COCCNC(=O)c1ccn(-c2cc(O[C@@H](C)[C@@H]3CCCN3C)nc(-c3onc4c3CCC[C@@]43CCCc4sc(N)c(C#N)c43)n2)n1 [I-58] | 1 | 6 | 1 | 45
13 | COCCNC(=O)c1ccn(-c2cc(O[C@@H](C)[C@@H]3[C@@H](OC)CCN3C)nc(-c3onc4c3CCC[C@@]43CCCc4sc(N)c(C#N)c43)n2)n1 [I-55] | 1 | 1 | 1 | 10
14 | C[C@H](NC(=O)c1ccn(-c2cc(O[C@@H](C)[C@@H]3CCCN3C)nc(-c3onc4c3CCC[C@@]43CCCc4sc(N)c(C#N)c43)n2)n1)c1ccccn1 [I-59] | 1 | 1 | 1 | 15

Now from value to compound, other results behind:

Row | IC50 (KRAS (G12C)::SOS1) [nM] | IC50 [1] [nM] | IC50 (KRAS (G12D)::SOS1) [nM] | SMILES | IC50 (SAS cells) [nM]
15 | 74 | 1640 | 1 | C[C@H]1CN(C)CCCN1c1cc(N2CC[C@H](N(C)C)C2)nc(-c2noc3c2CCC[C@@]32CCCc3sc(N)c(C#N)c32)n1 [II-16] | 3870
16 | 1 | 2 | 2 | CNC(=O)c1ccn(-c2cc(O[C@@H](C)[C@@H]3CCCN3C)nc(-c3noc4c3CCC[C@@]43CCCc4sc(N)c(C#N)c43)n2)n1 [II-20] | 86
17 | 1 | 3 | 1 | C[C@H](Oc1cc(-n2ccc(C(=O)N3CCCC3)n2)nc(-c2noc3c2CCC[C@@]32CCCc3sc(N)c(C#N)c32)n1)[C@@H]1CCCN1C [II-19] | 132
18 | 7 | 581 | 1 | C[C@H](Oc1cc(N2CCC(N(C)C)CC2)nc(-c2noc3c2CCC[C@@]32CCCc3sc(N)c(C#N)c32)n1)[C@@H]1CCCN1C [II-48] | 3880
19 | 2 | 1220 | 1 | C[C@H](Oc1cc(N2CCNC(C)(C)C2)nc(-c2noc3c2CCC[C@@]32CCCc3sc(N)c(C#N)c32)n1)[C@@H]1CCCN1C [II-32] | 8310
20 | 3 | 456 | 1 | C[C@H](Oc1cc(N2CCNC3(CCC3)C2)nc(-c2noc3c2CCC[C@@]32CCCc3sc(N)c(C#N)c32)n1)[C@@H]1CCCN1C [II-40] | 979
21 | 3 | 642 | 1 | C[C@H](Oc1cc(N2CCNCC2)nc(-c2noc3c2CCC[C@@]32CCCc3sc(N)c(C#N)c32)n1)[C@@H]1CCCN1C [II-45] | 530
22 | 9 | 980 | 1 | C[C@H](Oc1cc(N2CCNC3(CCCC3)C2)nc(-c2noc3c2CCC[C@@]32CCCc3sc(N)c(C#N)c32)n1)[C@@H]1CCCN1C [II-41] | 2110
23 | 3 | 438 | 2 | C[C@H](Oc1cc(N2C[C@H](C)NC3(CC3)C2)nc(-c2noc3c2CCC[C@@]32CCCc3sc(N)c(C#N)c32)n1)[C@@H]1C[C@@H](F)CN1C [II-18] | 293
24 | 8 | 657 | 2 | C[C@H](Oc1cc(N2C[C@H]3CN(C)C[C@H]3C2)nc(-c2noc3c2CCC[C@@]32CCCc3sc(N)c(C#N)c32)n1)[C@@H]1CCCN1C [II-33] | 597
25 | 2 | 65 | 1 | C[C@H](Oc1cc(N2CCNC3(COC3)C2)nc(-c2noc3c2CCC[C@@]32CCCc3sc(N)c(C#N)c32)n1)[C@@H]1CCCN1C [II-31] | 208
26 | 4 | 771 | 1 | C[C@H](Oc1cc(N2CC[C@H](N3CCCC3)C2)nc(-c2noc3c2CCC[C@@]32CCCc3sc(N)c(C#N)c32)n1)[C@@H]1CCCN1C [II-14] | 1670
27 | 6 | 324 | 1 | C[C@H](Oc1cc(N2C[C@@H](N(C)C)[C@@H](F)C2)nc(-c2noc3c2CCC[C@@]32CCCc3sc(N)c(C#N)c32)n1)[C@@H]1CCCN1C [II-11] | 1320
28 | 3 | 316 | 1 | C[C@H](Oc1cc(N2CCN(CCO)CC2)nc(-c2noc3c2CCC[C@@]32CCCc3sc(N)c(C#N)c32)n1)[C@@H]1CCCN1C [II-8] | 534
29 | 2 | 56 | 1 | C[C@H](Oc1cc([C@H]2CCN(C)C2)nc(-c2noc3c2CCC[C@@]32CCCc3sc(N)c(C#N)c32)n1)[C@@H]1CCCN1C [II-38] | 47
30 | 2 | 8110 | 3 | C[C@H](Oc1cc(-n2ccc(C(=O)O)n2)nc(-c2noc3c2CCC[C@@]32CCCc3sc(N)c(C#N)c32)n1)[C@@H]1CCCN1C [II-24] | 15600
